# Results from article PMC4541410 (Scientific Reports, 2015).
# Where two headings read alike, the source gives them in different places. Where a SMILES comes first, the peptide text is derived from it.
# Columns and labels:
# NP1525 (A/E) = assay type: cell-based; settings: primary HIV-1 isolate, subtype A/E; read-out: IC50 (nM), infection by primary isolate NP1525 (A/E)
# 93BR020 (F) = assay type: cell-based; settings: primary HIV-1 isolate, subtype F; read-out: IC50 (nM), infection by primary isolate 93BR020 (F)
# [1] = tested on: T20-resistant HIV-1 variant V38A/N42T; assay type: cell-based
# [2] = tested on: HIV-1IIIB (subtype B, X4); test: Inhibition of HIV-1 IIIB infection by peptides in the presence of sera from HIV-1-infected patients; assay type: cell-based; settings: for IC50: MT-2 cells, triplicate, mean ± SD
# Protocol: Inhibition of peptides on HIV-1IIIB (subtype B, X4)infection in the presence of HIV-1-infected patients’ sera was determined as previously described. Briefly, each peptide was mixed with serially diluted serum from an HIV-1-infected patient at room temperature for 30 min. Next, the mixture of peptide/serum and HIV-1 (100 TCID50) were added to MT-2 cells (1 × 10^5/ml) in RPMI 1640 medium containing 10% FBS. After incubation at 37 °C overnight, the culture supernatants were replaced with fresh culture medium.
# proteinase K = test: in vitro; settings: proteinase K in PBS, pH 7.2
# Protocol: Chromatographic analyses were performed using an ODS-C8 column (5 μm, 100 mm × 2.0 mm ID) kept at ambient temperature. The mobile phase was composed of acetonitrile-water-formic acid in the ratio of 50:50:0.1 (v/v/v) at a flow rate of 0.3 mL/min. The sample injection volume was 10 μL. Acetonitrile was HPLC grade and other chemical reagents and solvents were analytical grade. A Thermo TSQ Quantum Discovery MAX triple-quadruple tandem mass spectrometer equipped with ESI source (San Jose, CA) and Surveyor LC pump were used for LC-MS analysis. Data acquisition and data processing were performed by using Xcalibur software and LCQuan 2.0 data analysis program (Thermo Finnigan), respectively. Optimized MS parameters were as below: 4800 V spray voltage, 40.0 psi sheath gas pressure, 1.0 psi auxiliary valve flow and 300 °C of capillary temperature. When running collision-induced dissociation (CID), the pressure was set to 1.5 mTorr.
# The peptides (10 μg/mL) were prepared in PBS pH 7.2 containing 20 ng/ml proteinase K. The resulting mixture were incubated at 37 °C in a water bath and taken out at different time intervals (0, 5, 15, 30, 60, 120 minutes), followed by quenching the samples with ethyl alcohol and quantitating the peptides by LC-MS analysis as described above.
# 92UG029 (A) = settings: read-out: IC50 (nM), infection by primary isolate 92UG029 (A); primary HIV-1 isolate, subtype A
smiles,measurement,setting,value
CC[C@H](C)[C@H](NC(=O)[C@H](CO)NC(=O)[C@H](CCC(=O)O)NC(=O)[C@H](CCC(=O)O)NC(=O)[C@H](CCC(N)=O)NC(=O)[C@H](CCCCN)NC(=O)[C@H](CCCCN)NC(=O)[C@@H](NC(=O)[C@H](CCC(N)=O)NC(=O)[C@H](CCC(=O)O)NC(=O)[C@H](CCC(=O)O)NC(=O)[C@@H](NC(=O)[C@H](CCCCN)NC(=O)[C@H](CCCCN)NC(=O)[C@@H](NC(=O)[C@H](CC(C)C)NC(=O)[C@H](CCC(=O)O)NC(=O)[C@H](CCC(=O)O)NC(=O)[C@H](CO)NC(=O)[C@H](CCCCN)NC(=O)[C@H](CCCCN)NC(=O)[C@@H](NC(=O)[C@H](CC(C)C)NC(=O)[C@H](CCC(=O)O)NC(=O)[C@H](CCC(=O)O)NC(=O)[C@@H](NC(=O)[C@H](CCCCN)NC(=O)[C@H](CCCCN)NC(=O)[C@H](CC(=O)O)NC(=O)[C@H](Cc1c[nH]c2ccccc12)NC(=O)[C@H](CCC(=O)O)NC(=O)[C@H](CCC(=O)O)NC(=O)[C@H](Cc1c[nH]c2ccccc12)NC(=O)[C@@H](NC(=O)[C@H](CCSC)NC(C)=O)[C@@H](C)O)[C@@H](C)CC)[C@@H](C)CC)[C@@H](C)CC)[C@@H](C)CC)[C@@H](C)CC)C(=O)N[C@@H](CCCCN)C(=O)N[C@@H](CCCCN)C(N)=O [AP3] (Ac-MTWEEWDKKIEELIKKSEELIKKIEEQIKKQEESIKK-NH2),IC50,NP1525 (A/E),32.3 ± 8.8 nM
same,IC50,93BR020 (F),19.9 nM
same,IC50,[1],90 ± 21.5 nM
same,"Fold change of IC50, HPS-1",[2]; HPS-1 relative to N,0.7
same,"Fold change of IC50, HPS-2",[2]; HPS-2 relative to N,0.2
same,"Fold change of IC50, HPS-3",[2]; HPS-3 relative to N,0.2
same,"Fold change of IC50, HPS-4",[2]; HPS-4 relative to N,0.1
same,"Fold change of IC50, HPS-5",[2]; HPS-5 relative to N,0.2
same,IC50,"[2]; in presence of serum of HIV-1-infected patient HPS-1, read-out: IC50 (nM), HIV-1 IIIB infection, HPS-1",17.7 ± 4.3 nM
same,IC50,"[2]; in presence of serum of HIV-1-infected patient HPS-2, read-out: IC50 (nM), HIV-1 IIIB infection, HPS-2",5.1 ± 0.7 nM
same,IC50,"[2]; in presence of serum of HIV-1-infected patient HPS-3, read-out: IC50 (nM), HIV-1 IIIB infection, HPS-3",4.2 ± 0.4 nM
same,IC50,"[2]; in presence of serum of HIV-1-infected patient HPS-4, read-out: IC50 (nM), HIV-1 IIIB infection, HPS-4",2 ± 0.6 nM
same,IC50,"[2]; in presence of serum of HIV-1-infected patient HPS-5, read-out: IC50 (nM), HIV-1 IIIB infection, HPS-5",5.1 ± 0.8 nM
same,"remaining at 2 h, 10 μg/mL",proteinase K,100%
same,IC50,92UG029 (A),7.1 ± 1.7 nM
same,fold longer in vivo elimination half-life than T20,"AP3 versus T20, SD rat, i.v. 1 mg/kg",about 2.8 fold
same,Cmax,"intravenous 1 mg/kg, male SD rats, n = 2, plasma by sandwich ELISA, PK Solver",289.57 µg/mL
